Molecular target: T1, human PDE2A1 (Homo sapiens, UniProt O00408)
T1 construct: GST; purchased BPS Bioscience (San Diego, Calif.) 60020; host or cells: insect cells
Test: IMAP FP PDE selectivity panel, human PDE2A1
Format: biochemical
Conditions: Lab B; read-out: Human PDE2 Ki (nM) Lab B
Method in brief: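 IMAP FP read-out, run at room temperature in parallel with PDE1–11: enzyme at 20% substrate conversion, 50 nM FAM-cAMP containing 1000 nM cGMP, Tris pH 7.2/MgCl2/DTT buffer. Compounds as ten 3-fold dilutions. Reaction 60 min, stopped with binding reagent for 1 h before polarization measurement.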

T1 sequence (O00408 1-920 isoform O00408-2): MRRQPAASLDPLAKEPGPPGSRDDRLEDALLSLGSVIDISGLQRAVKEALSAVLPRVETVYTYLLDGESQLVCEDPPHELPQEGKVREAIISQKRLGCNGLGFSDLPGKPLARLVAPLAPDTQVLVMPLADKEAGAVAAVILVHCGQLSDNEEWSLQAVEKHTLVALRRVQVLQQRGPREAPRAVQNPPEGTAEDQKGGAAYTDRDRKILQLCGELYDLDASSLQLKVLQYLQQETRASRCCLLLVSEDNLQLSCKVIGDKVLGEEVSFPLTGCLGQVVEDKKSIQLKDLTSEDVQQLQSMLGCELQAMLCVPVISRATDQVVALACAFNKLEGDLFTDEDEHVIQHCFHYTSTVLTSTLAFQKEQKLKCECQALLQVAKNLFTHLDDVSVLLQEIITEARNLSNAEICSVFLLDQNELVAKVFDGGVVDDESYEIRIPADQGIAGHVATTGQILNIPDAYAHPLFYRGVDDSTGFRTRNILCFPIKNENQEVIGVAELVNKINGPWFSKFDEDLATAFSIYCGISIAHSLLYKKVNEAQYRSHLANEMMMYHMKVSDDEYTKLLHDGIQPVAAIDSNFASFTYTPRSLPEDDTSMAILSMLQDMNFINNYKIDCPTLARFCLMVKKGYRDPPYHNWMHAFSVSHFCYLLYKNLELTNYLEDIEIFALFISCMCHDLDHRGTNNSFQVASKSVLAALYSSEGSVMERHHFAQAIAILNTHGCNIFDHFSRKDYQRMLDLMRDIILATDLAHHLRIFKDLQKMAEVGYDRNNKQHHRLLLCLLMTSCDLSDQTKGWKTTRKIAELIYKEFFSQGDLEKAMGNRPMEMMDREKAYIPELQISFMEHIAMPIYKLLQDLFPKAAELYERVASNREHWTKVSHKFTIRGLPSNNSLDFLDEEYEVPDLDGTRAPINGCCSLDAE

A Ki of 91 nM was found for `Cc1cc(NC2(c3ccc(C(F)(F)F)c(F)c3)CC2)n2nc(C)nc2n1` [Example 192, N-(1-(3-Fluoro-4-(trifluoromethyl)phenyl)cyclopropyl)-2,5-dimethyl-[1,2,4]triazolo [1,5-a]pyrimidin-7-amine] in this work.
A Ki of 142 nM was found for `CCc1nc2nc(C)cc(NC3(c4ccc(C(F)(F)F)c(F)c4)CC3)n2n1` [Example 193, 2-Ethyl-N-(1-(3-fluoro-4-(trifluoromethyl)phenyl)cyclopropyl)-5-methyl-[1,2,4]triazolo [1,5-a]pyrimidin-7-amine] in this work.
A Ki of 113 nM was found for `CCCc1nc2nc(C)cc(NC3(c4ccc(C(F)(F)F)c(F)c4)CC3)n2n1` [Example 194, N-(1-(3-Fluoro-4-(trifluoromethyl)phenyl)cyclopropyl)-5-methyl-2-propyl-[1,2,4]triazolo [1,5-a]pyrimidin-7-amine] in this work.
A Ki of 144 nM was found for `Cc1cc(NC2(c3ccc(C(F)(F)F)c(F)c3)CC2)n2nc(C3CC3)nc2n1` [Example 195, 2-Cyclopropyl-N-(1-(3-fluoro-4-(trifluoromethyl)phenyl)cyclopropyl)-5-methyl-[1,2,4]triazolo [1,5-a]pyrimidin-7-amine] in this work.
A Ki of 321 nM was found for `Cc1cc(NC2(c3ccc(C(F)(F)F)c(F)c3)CC2)n2nc(CO)nc2n1` [Example 196, (7-(1-(3-Fluoro-4-(trifluoromethyl)phenyl)cyclopropylamino)-5-methyl-[1,2,4]triazolo [1,5-a]pyrimidin-2-yl)methanol] in this work.
A Ki of 80 nM was found for `Cc1cc(NC2(c3ccc(C(F)(F)F)c(F)c3)CC2)n2nc(CF)nc2n1` [Example 197, N-(1-(3-Fluoro-4-(trifluoromethyl)phenyl)cyclopropyl)-2-(fluoromethyl)-5-methyl-[1,2,4]triazolo [1,5-a]pyrimidin-7-amine] in this work.
A Ki of 83 nM was found for `Cc1cc(NC2(c3ccc(C(F)(F)F)c(F)c3)COC2)n2ncnc2n1` [Example 198, N-(3-(3-Fluoro-4-(trifluoromethyl)phenyl)oxetan-3-yl)-5-methyl-[1,2,4]triazolo [1,5-a]pyrimidin-7-amine] in this work.
A Ki of 167 nM was found for `Cc1cc(NC2(c3ccc(C(F)(F)F)cc3)COC2)n2ncnc2n1` [Example 199, 5-Methyl-N-(3-(4-(trifluoromethyl)phenyl)oxetan-3-yl)-[1,2,4]triazolo [1,5-a]pyrimidin-7-amine] in this work.
With `Cc1cc(NC2(c3cccc(C(F)(F)F)c3F)COC2)n2ncnc2n1` [Example 200, N-(3-(2-Fluoro-3-(trifluoromethyl)phenyl)oxetan-3-yl)-5-methyl-[1,2,4]triazolo [1,5-a]pyrimidin-7-amine] the Ki was > 2960 nM.
A Ki of 131 nM was found for `Cc1cc(NC2(c3ccc(C(F)(F)F)c(F)c3)CC2)n2nc(C(F)F)nc2n1` [Example 201, 2-(Difluoromethyl)-N-(1-(3-fluoro-4-(trifluoromethyl)phenyl)cyclopropyl)-5-methyl-[1,2,4]triazolo [1,5-a]pyrimidin-7-amine] in this work.
A Ki of 56 nM was found for `Cc1cc(N[C@@H](c2ccc(C(F)(F)F)c(F)c2)C(C)(C)C)n2nc(C)nc2n1` [Example 202, (R)-N-(1-(3-Fluoro-4-(trifluoromethyl)phenyl)-2,2-dimethylpropyl)-2,5-dimethyl-[1,2,4]triazolo [1,5-a]pyrimidin-7-amine] in this work.
A Ki of 33 nM was found for `CCc1nc2nc(C)cc(N[C@@H](c3ccc(C(F)(F)F)c(F)c3)C(C)(C)C)n2n1` [Example 203, (R)-2-Ethyl-N-(1-(3-fluoro-4-(trifluoromethyl)phenyl)-2,2-dimethylpropyl)-5-methyl-[1,2,4]triazolo [1,5-a]pyrimidin-7-amine] in this work.
A Ki of 17 nM was found for `CCCc1nc2nc(C)cc(N[C@@H](c3ccc(C(F)(F)F)c(F)c3)C(C)(C)C)n2n1` [Example 204, (R)-N-(1-(3-Fluoro-4-(trifluoromethyl)phenyl)-2,2-dimethylpropyl)-5-methyl-2-propyl-[1,2,4]triazolo [1,5-a]pyrimidin-7-amine] in this work.
A Ki of 24 nM was found for `Cc1cc(N[C@@H](c2ccc(C(F)(F)F)c(F)c2)C(C)(C)C)n2nc(C3CC3)nc2n1` [Example 205, (R)-2-Cyclopropyl-N-(1-(3-fluoro-4-(trifluoromethyl)phenyl)-2,2-dimethylpropyl)-5-methyl-[1,2,4]triazolo [1,5-a]pyrimidin-7-amine] in this work.
A Ki of 184 nM was found for `Cc1cc(N[C@@H](c2ccc(C(F)(F)F)c(F)c2)C(C)(C)C)n2nc(CO)nc2n1` [Example 206, (R)-(7-(1-(3-Fluoro-4-(trifluoromethyl)phenyl)-2,2-dimethylpropylamino)-5-methyl-[1,2,4]triazolo [1,5-a]pyrimidin-2-yl)methanol] in this work.
A Ki of 74 nM was found for `Cc1cc(N[C@@H](c2ccc(C(F)(F)F)c(F)c2)C(C)(C)C)n2nc(C(F)F)nc2n1` [Example 207, (R)-2-(Difluoromethyl)-N-(1-(3-fluoro-4-(trifluoromethyl)phenyl)-2,2-dimethylpropyl)-5-methyl-[1,2,4]triazolo [1,5-a]pyrimidin-7-amine] in this work.
A Ki of 2.7 nM was found for `Fc1cc(C2(Nc3cc(Cl)nc4ncnn34)CC2)ccc1C(F)(F)F` [Example 208, 5-Chloro-N-(1-(3-fluoro-4-(trifluoromethyl)phenyl)cyclopropyl)-[1,2,4]triazolo [1,5-a]pyrimidin-7-amine] in this work.
A Ki of 256 nM was found for `COc1cc(N[C@@H](c2ccc(C(F)(F)F)c(F)c2)C(C)(C)C)n2ncnc2n1` [Example 233, (R)—N-(1-(3-Fluoro-4-(trifluoromethyl)phenyl)-2,2-dimethylpropyl)-5-methoxy-[1,2,4]triazolo[1,5-a]pyrimidin-7-amine] in this work.
A Ki of 1230 nM was found for `CCOc1cc(N[C@@H](c2ccc(C(F)(F)F)c(F)c2)C(C)(C)C)n2ncnc2n1` [Example 234, (R)-5-Ethoxy-N-(1-(3-fluoro-4-(trifluoromethyl)phenyl)-2,2-dimethylpropyl)-[1,2,4]triazolo [1,5-a]pyrimidin-7-amine] in this work.
A Ki of 18 nM was found for `COc1cc(NC2(c3ccc(C(F)(F)F)c(F)c3)CC2)n2ncnc2n1` [Example 235, N-(1-(3-Fluoro-4-(trifluoromethyl)phenyl)cyclopropyl)-5-methoxy-[1,2,4]triazolo [1,5-a]pyrimidin-7-amine] in this work.
A Ki of 335 nM was found for `CC(C)(C)[C@@H](Nc1cc(O)nc2ncnn12)c1ccc(C(F)(F)F)c(F)c1` [Example 238, (R)-7-(1-(3-Fluoro-4-(trifluoromethyl)phenyl)-2,2-dimethylpropylamino)-[1,2,4]triazolo[1,5-a]pyrimidin-5-ol] in this work.
A Ki of 13 nM was found for `CN(C)c1cc(NC2(c3ccc(C(F)(F)F)c(F)c3)CC2)n2ncnc2n1` [Example 239, N^7-(1-(3-Fluoro-4-(trifluoromethyl)phenyl)cyclopropyl)-N,N-dimethyl-[1,2,4]triazolo[1,5-a]pyrimidine-5,7-diamine] in this work.
A Ki of 108 nM was found for `CC(C)(C)[C@@H](Nc1cc(N)nc2ncnn12)c1ccc(C(F)(F)F)c(F)c1` [Example 240, (R)-N^7-(1-(3-Fluoro-4-(trifluoromethyl)phenyl)-2,2-dimethylpropyl)-[1,2,4]triazolo [1,5-a]pyrimidine-5,7-diamine] in this work.
A Ki of 375 nM was found for `CNc1cc(N[C@@H](c2ccc(C(F)(F)F)c(F)c2)C(C)(C)C)n2ncnc2n1` [Example 241, (R)-N^7-(1-(3-Fluoro-4-(trifluoromethyl)phenyl)-2,2-dimethylpropyl)-N^5-methyl-[1,2,4]triazolo [1,5-a]pyrimidine-5,7-diamine] in this work.
A Ki of 616 nM was found for `CN(C)c1cc(N[C@@H](c2ccc(C(F)(F)F)c(F)c2)C(C)(C)C)n2ncnc2n1` [Example 242, (R)-N^7-(1-(3-Fluoro-4-(trifluoromethyl)phenyl)-2,2-dimethylpropy1)-N^5,N^5-dimethyl-[1,2,4]triazolo [1,5-a]pyrimidine-5,7-diamine] in this work.
A Ki of 204 nM was found for `OCCCc1cc(NC2(c3ccc(C(F)(F)F)c(F)c3)CC2)n2ncnc2n1` [Example 245, 3-(7-((1-(3-Fluoro-4-(trifluoromethyl)phenyl)cyclopropyl)amino)-[1,2,4]triazo[1,5-a]pyrimidin-5-yl)propan-1-ol] in this work.
A Ki of 46 nM was found for `Cc1cc(N(C)C2(c3ccc(C(F)(F)F)c(F)c3)CC2)n2ncnc2n1` [Example 246] in this work.
A Ki of 40 nM was found for `Cc1cc(N[C@@H](c2ccc(C(F)(F)F)c(F)c2)C(C)(C)C)n2nc(CCCO)nc2n1` [Example 249, (R)-3-(7-(1-(3-Fluoro-4-(trifluoromethyl)phenyl)-2,2-dimethylpropylamino)-5-methyl-[1,2,4]triazolo[1,5-a]pyrimidin-2-yl)propan-1-ol] in this work.
A Ki of 57 nM was found for `Cc1cc(N[C@@H](c2ccc(C(F)(F)F)c(F)c2)C(C)(C)C)n2nc(CCO)nc2n1` [Example 250, (R)-2-(7-(1-(3-Fluoro-4-(trifluoromethyl)phenyl)-2,2-dimethylpropylamino)-5-methyl-[1.2.4]triazolo[1,5-a]pyrimidin-2-yl)ethanol] in this work.
A Ki of 140 nM was found for `OCCc1cc(NC2(c3ccc(C(F)(F)F)c(F)c3)CC2)n2ncnc2n1` [Example 251, 2-(7-(1-(3-Fluoro-4-(trifluoromethyl)phenyl)cyclopropylamino)-[1,2,4]triazolo[1,5-a]pyrimidin-5-yl)ethanol] in this work.
A Ki of 60 nM was found for `Cc1cc(NC(c2ccc(C(F)(F)F)c(F)c2)C(C)(C)N)n2ncnc2n1` (stereo not drawn) [Example 252, 1-(3-Fluoro-4-(trifluoromethyl)phenyl)-2-methyl-N-(5-methyl-[1,2,4]triazolo[1,5-a]pyrimidin-7-yl)propane-1,2-diamine] in this work.
A Ki of 22 nM was found for `Cc1cc(NC2(c3ccc(C(F)(F)F)c(F)c3)CC2)n2nc(N)nc2n1` [Example 255, N^7-{1-[3-Fluoro-4-(trifluoromethyl)phenyl]cyclopropyl}-5-methyl[1,2,4]triazolo[1,5-a]pyrimidine-2,7-diamine] in this work.
A Ki of 608 nM was found for `Cc1cc(NC2(c3ccc(C(F)(F)F)c(F)c3)CC2)n2nc(N(C)C)nc2n1` [Example 256, N^7-{1-[3-Fluoro-4-(trifluoromethyl)phenyl]cyclopropyl}-N^2,N^2,5-trimethyl[1,2,4]triazolo[1,5-a]pyrimidine-2,7-diamine] in this work.
